Assay results: patent US9233096B2, “Method of providing an anti-ulcer treatment with extracts and isolated flavonoids from Euphorbia cuneata” (King Saud University, priority 2011, dated 2016)

Tested on: ethanol-induced gastric ulceration in male Wister rats
Test: Antiulcerogenic activity, ethanol-induced gastric ulcer model
Assay type: in vivo
Conditions: 100 mg/kg orally; for Antiulcerogenic activity (in words): isolated compounds compared with reference drugs at 100 mg/kg; for No. of ulcers: three doses before ethanol 50% 10 ml/kg, mean ± SD, n = 6; for Curative ratio: versus ethanol control
Experimental: The antiulcerogenic activity of the total alcohol extract of Euphorbia cuneata was studied using ethanol-induced ulcer model at doses of 125, 250 and 500 mg/kg. […] The antioxidant properties to the total alcohol extract and the isolated compounds were evaluated using DPPH radical scavenging activity test. The liver and kidney functions were studied.
Male Wister rats (180-200 g) were used. […] Animals were divided into groups each of 6 rats and starved for 48 h before use to ensure an empty stomach. To avoid dehydration during the period of fasting, rats were supplied with sucrose (BDH) 8% (w/v) solution in NaCl (BDH) 0.2% (w/v), which was removed one hour before experimentation. The 1st group was kept as a normal control, while the 2nd one was kept as a positive control. Groups 3rd to 5th received the alcohol extract of E. cuneata in doses of 125, 250 and 500 mg/kg orally. […] The last three groups of rats were given ranitidine, apigenin and naringin orally as reference drugs in a dose of 100 mg/kg.
Two doses were given in the first day at 08:00 and 16:00 clock; a third dose was given on the second day 1.5 h before induction of gastric ulceration. All rats except the normal control were given ethanol (Merck) 50% (v/v) (in distilled water) in a dose of 10 ml/kg orally to induce gastric ulceration. Normal control rats received equivolumes of distilled water only at the same time intervals. One hour after ethanol administration, all rats were killed by an overdose of chloroform and the stomachs were rapidly removed, opened along their greater curvature and gently rinsed under running tap water. Lesions in the glandular part of the stomach were measured under an illuminated magnifying microscope (10×). Long lesions were counted and their lengths were measured. Petechial lesions were counted, and then each five petechial lesions were taken as 1 mm of ulcer. To calculate the ulcer index (mm), the sum of the total length of long ulcers and petechial lesions in each group of rats was divided by its number. The curative ratio was determined according to the formula: […]
The results obtained were statistically analyzed using “t” test.

| Molecule | Antiulcerogenic activity (in words) | No. of ulcers | Curative ratio |
| --- | --- | --- | --- |
| COc1ccc(-c2cc(=O)c3c(O)cc(O[C@@H]4O[C@H](CO[C@@H]5O[C@@H](C)[C@H](O)[C@@H](O)[C@H]5O)[C@@H](O)[C@H](O)[C@H]4O)cc3o2)cc1O [4′-O-methoxy-luteolin-7-O-rhamnoglucoside] | most effective | 2.003 ± 0.072 | 88.23 |
| O=c1cc(-c2ccc(O)cc2)oc2cc(O)cc(O)c12 [Apigenin] |  | 4.122 ± 0.432 | 75.78 |
| C[C@@H]1O[C@@H](O[C@H]2[C@H](Oc3cc(O)c4c(c3)O[C@H](c3ccc(O)cc3)CC4=O)O[C@H](CO)[C@@H](O)[C@@H]2O)[C@H](O)[C@H](O)[C@H]1O [Naringin] |  | 3.167 ± 0.872 | 81.40 |
| CNC(=C[N+](=O)[O-])NCCSCc1ccc(CN(C)C)o1 [Rantidine] |  | 3.200 ± 0.800 | 81.20 |
| Aromadendrin (2,3-dihydro-kaempferol) | as effective as naringin, apigenin and ranitidine | 3.558 ± 0.640 | 79.10 |
